The target of data set [1] is T1, DENV2 NS2B-NS3 interaction (Dengue virus type 2, UniProt P29990).
T1 construct: GST (N); made in house
Put plainly: Split luciferase complementation (SLC) NS2B-NS3 interaction assay. Format: binding, Dengue virus serotype 2. The conditions noted are these: concentration reducing 50% of SLC signal; read-out: IC50-SLC-(DN2).

Data set [2] has as its target T2, DENV2 NS2B-NS3 protease (Dengue virus type 2, UniProt P29990).
T2 construct: made in house
Put plainly: Protease inhibition assay (FRET peptide substrate). Type of data set: biochemical, Dengue virus serotype 2. On the procedure:
Protease Inhibition Assay. The protease inhibition assay was performed using the refolded DENV2 NS3 fusion protein (50 nM) and a fluorescence resonance energy transfer (FRET) peptide substrate (100 μM) (Abz-RRRRSAG-nTyr (NeoBiolab)), as described previously. […] 13:e1006411 (2017); and Lang et al., “Analysis of Protein-Protein Interactions by Split Luciferase Complementation Assay,” Curr. Protoc. Toxicol. 82:e (2019), all of which are hereby incorporated by reference in their entirety. Substrate cleavage was monitored at excitation/emission wavelengths of 360 nm/420 nm (Abz substrate) by a BioTek Flx800. The rate of increase in relative fluorescence unit (RFU) over time was calculated in the linear range and normalized as a percent of the DMSO control. The IC50/CC50/EC50 was determined by fitting the dose-responsive curve with a non-linear regression function using the GraphPad Prism 8 (San Diego, Calif.). All experiments were performed in triplicates.
Next, the inhibition efficacy of these positive derivatives were evaluated against the viral NS2B-NS3 protease function as previously described. […] Previously, two versions of the NS3 protease were generated, the NS3 protease domain refolded from inclusion bodies and a soluble version of the NS3 protease domain fused to maltose-binding protein (MBP). […]

Data set [3] deals with DENV2. Briefly: Viral titer (plaque) reduction assay, DENV2 in A549 cells. Type of data set: cell-based, Dengue virus serotype 2. On the procedure:
Viral Titer Reduction Assay. A viral titer reduction assay was used to determine the compounds' effect on DENV2 and ZIKV strains, as described previously. […] Human A549 lung carcinoma cells and human primary neural progenitor cells were used, as described previously. […] 13:e1006411 (2017), which are hereby incorporated by reference in their entirety. All experiments were performed in triplicates.
A viral plaque reduction assay was performed next to evaluate the antiviral efficacy of these derivatives. Human lung carcinoma A549 cells were infected with DENV2 in the presence of a concentration series of derivatives or a dimethyl sulfoxide (DMSO) control, and viral titers were measured at 48 hrs post-infection, as described previously.

The subject of data set [4] is ZIKV. Put plainly: Viral titer reduction assay, ZIKV in A549 cells. Format: cell-based, Zika virus. On the procedure:
Viral Titer Reduction Assay. A viral titer reduction assay was used to determine the compounds' effect on DENV2 and ZIKV strains, as described previously. […] Human A549 lung carcinoma cells and human primary neural progenitor cells were used, as described previously. […] All experiments were performed in triplicates.

Data set [5] can be described thus: WST-8 cell proliferation cytotoxicity assay. Type of data set: cell-based, human. The conditions noted are these: human. As for the experimental part: (§1) Cytotoxicity Assay. […] All experiments were performed in triplicates.
(§2) To address this concern, next the compound cytotoxicity CC50 was measured using a WST-8 cell proliferation assay, as described previously.
A general note: Formazan colour is commonly taken as a measure of viable cells.

The nature of data set [6]: Aqueous solubility. Format: physicochemical.
A short description of data set [7]: LogP.
Data set [8] relates to A549 cells. Briefly: WST-8 cell proliferation cytotoxicity assay. Format: cell-based, human. The conditions noted are these: Table 4, preliminary SAR, A549 cells; read-out: CC50. On the procedure: as §1, §2
A short description of data set [9]: Pharmacokinetics in B6 mice after oral gavage. The text has this:
Pharmacokinetics. […] Fan et al., “Contributions of Hepatic and Intestinal Metabolism to the Disposition of Niclosamide, a Repurposed Drug with Poor Bioavailability,” Drug Metab. Dispos. 47:756-763 (2019), which is hereby incorporated by reference in its entirety. […] Student's t-test was used. P values<0.05 were considered statistically significant.

Data set [10] deals with DENV2 replicon. Put plainly: DENV2 replicon assay in BHK-21 cells (Renilla luciferase). Format: cell-based, Dengue virus serotype 2. The conditions noted are these: Dengue virus, BHK-21 replicon cells, 48 hours, read-out: EC50-DN2 (DENV2 replicon). (In antiviral work, replicon cells carry a viral genome segment that copies itself.)
Protocol: DENV2 Replicon Assay. […] The cells were incubated at 37° C. in a humidified incubator with 5% CO2 for hrs in a 100 μl medium containing Minimal Essential Medium (MEM) supplemented with 10% fetal bovine serum (FBS), 100 I.U./ml penicillin, 100 g/ml streptomycin, and 300 μg/ml G418. Upon 24 hrs incubation, culture medium was discarded. Fresh culture medium of 100 μl with a concentration series of compounds or DMSO control was added to the cells in triplicates. The culture was further incubated for 48 hours. The cells were then washed twice with 100 μl phosphate-buffered saline (PBS), followed by addition of 25 μl of a lysis buffer containing 1×PBS and 1% Triton X-100. The mixture was incubated at room temperature with gentle shaking (50 rpm) for 30 minutes. Assay buffer (125 μl) containing 1×PBS, 0.05% (3-((3-cholamidopropyl) dimethylammonio)-1-propanesulfonate) (CHAPS), and 0.1% BSA was then added to each well. In the meantime, a fresh 4× working substrate coelenterazine was prepared by diluting 1 μl of stock coelenterazine (2.4 mM) dissolved in ethanol into 10 ml assay buffer (10,000-fold dilution). […] The luminescence was recorded immediately using the Veritas luminometer. The luminescence data was normalized to DMSO control. The EC50 was determined by nonlinear regression fitting of normalized experimental data in GraphPad Prism 8.0 (San Diego, Calif.). […]
A short description of data set [11]: physchem.
Data set [12] is described as follows: in vitro. The conditions noted are these: not told, Perme. (cell permeability).
For data set [13] the following is noted: not told.
Where [14] appears, read: refolded NS3, read-out: IC50-pro (DN2).
[15] abbreviates: Dengue virus, DENV2, A549 cells, 48 hrs post-infection, read-out: EC50-DN2 (A549).
Setting [16] is: Dengue virus, DENV2, Table 4, preliminary SAR, A549 cells, read-out: EC50-DN2.
Setting [17] is: Zika virus, A549, read-out: EC50-ZK.
Setting [18] is: Zika virus, A549, read-out: EC50-ZK (A549).
[19] abbreviates: A549 cells, read-out: CC50 (A549).
[20] abbreviates: female, B6, mouse, in vivo, po, 40 mg/kg.
Setting [21] is: Table 4, preliminary SAR, read-out: IC50-pro(DN2).
The mark [22] stands for this setting: Table 4, preliminary SAR, A549 cells, read-out: EC50-DN2.
Where [23] appears, read: Table 4, preliminary SAR, A549 cells, read-out: EC50-ZK.

Read-outs that look alike come from different tables or passages of the source. Bounds are passed on as bounds.

T1 sequence (P29990 1476-1654): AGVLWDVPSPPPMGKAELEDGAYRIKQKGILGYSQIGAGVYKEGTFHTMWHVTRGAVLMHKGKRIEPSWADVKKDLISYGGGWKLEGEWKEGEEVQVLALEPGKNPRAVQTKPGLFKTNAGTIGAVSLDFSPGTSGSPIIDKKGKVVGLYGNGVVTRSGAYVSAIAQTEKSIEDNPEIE
T2 sequence (P29990 1476-1654): as above

For orientation: IC50 means the point on the concentration scale where inhibition reaches its midpoint. For orientation: EC50 means the concentration needed to bring the measured effect to its halfway point. The term CC50 denotes the concentration at which the toxic effect on the cells reaches its halfway point. By logP is commonly meant a log measure of how a compound divides between an organic and an aqueous phase. Read a high logP as higher lipophilicity. On to `CN1CCC(Oc2ccc(Cl)cc2C(=O)Nc2ccc([N+](=O)[O-])cc2Cl)CC1` [HJC0381], for which the values for the IC50 in data set [1] and in data set [2] (setting [14]) were 10.8 µM and 25.9 µM, respectively. Also, the EC50 came out at 1200 nM in [3] (setting [15]), 1200 nM in data set [3] (setting [16]), 3900 nM in data set [4] (setting [17]) and 3900 nM in data set [4] (setting [18]). In data set [5] (setting [19]), the CC50 worked out at 91.1 µM. For the same compound, the aqueous solubility result in [6] is recorded as “significantly improves the aqueous solubility”. The same compound came in with a logP in data set [7] of 2.38.
As to `CC(=O)Nc1ccc(NC(=O)c2cc(Cl)ccc2O)c(Cl)c1` [HJC0140], the EC50 in data set [3] (setting [15]), in [3] (setting [16]), in data set [4] (setting [17]) and in [4] (setting [18]) was > 30000 nM throughout. Further, the logP in data set [7] amounted to 2.47.
With `O=C(Nc1ccc([N+](=O)[O-])cc1Cl)c1cc(Cl)ccc1OCCN1CCOCC1` [HJC0114], the IC50 in data set [1] turned out to be 18.4 µM; in [2] (setting [14]) it was 33.6 µM. For the same compound, the EC50 in data set [3] (setting [15]) and in data set [4] (setting [18]) was > 30000 nM in each case. Further, the CC50 in data set [5] (setting [19]) was > 200 µM.
The term Cmax denotes the highest concentration seen after dosing. As a reminder, the Papp is a coefficient for how fast a substance crosses the barrier. A higher Papp goes with fast passage. For the compound `O=C(Nc1ccc([N+](=O)[O-])cc1Cl)c1cc(Cl)ccc1O` [Niclosamide, reference compound], the IC50 in data set [1] came to 2 µM. For the same compound, the EC50 worked out at 550 nM in data set [3] (Dengue virus, DENV2, A549, 48 h, read-out: EC50-DN2 (A549)); 480 nM in data set [4] (setting [17]); 480 nM in data set [4] (setting [18]); 2000 nM in [10]. Moreover, the CC50 in [8] amounted to 4.8 µM. For the same compound, in data set [9] (B6 mice, single oral dose 40 mg/kg, plasma), the “T1/2 ± S.D.” value turned out to be 4.6 ± 1.0 h. The “AUC0→∞ ± S.D.” value in data set [9] (setting [20]) worked out at 3.5 ± 0.8. For the same compound, in data set [9] (setting [20]), the highest level (Cmax) was 600 nM. Also, in data set [9] (setting [20]), the “Tmax ± S.D.” value was 42 ± 24 min. Further, the logP in data set [11] was found to be 3.38. Besides, in data set [12], the Papp stood at 0.25 ×10⁻⁶ cm/s.
For `CC[C@H](N)COc1ccc(Cl)cc1C(=O)Nc1ccc([N+](=O)[O-])cc1Cl` [HJC0390], the IC50 in [1] amounted to 6 µM; in data set [2] (setting [14]), 46.5 µM. In addition, the EC50 in data set [3] (setting [15]) was 430 nM; in data set [4] (setting [18]), < 100 nM. Also, the CC50 in [5] (setting [19]) worked out at 30.1 µM.
In the case of `O=C(Nc1ccc2c(c1)S(=O)(=O)C=C2)c1cc(Cl)ccc1O` [HJC0149], the IC50 worked out at 18.6 µM in [1] and 20.3 µM in [2] (setting [14]). The EC50 worked out at 900 nM in data set [3] (setting [15]), 900 nM in data set [3] (setting [16]), 1100 nM in data set [4] (setting [17]) and 1100 nM in data set [4] (setting [18]). In [5] (setting [19]), the CC50 was 241 µM. Besides, the log partition coefficient (logP) in [7] was 2.41.
`NCCCOc1ccc(Cl)cc1C(=O)Nc1ccc([N+](=O)[O-])cc1Cl` [HJC0308]: the results for the IC50 in data set [1] and in data set [2] (setting [14]) were 4.9 µM and 39.7 µM, respectively. Moreover, the EC50 in [3] (setting [15]) came out at 1400 nM; in [4] (setting [18]), 6200 nM. For the same compound, the CC50 in data set [5] (setting [19]) stood at 17.7 µM.
The matching figures for `CN1CCN(CCOc2ccc(Cl)cc2C(=O)Nc2ccc([N+](=O)[O-])cc2Cl)CC1` [HJC0365]: 13.2 µM, > 60 µM, 6400 nM, 6000 nM and 177 µM.
For the compound `O=C(Nc1cc(F)cc(C(F)(F)F)c1)c1cccc([N+](=O)[O-])c1O` [JMX0317], the IC50 in data set [2] (setting [21]) is 8.4 µM. Moreover, the EC50 was determined as 200 nM in [3] (setting [22]) and 120 nM in data set [4] (setting [23]). Besides, the CC50 in data set [8] came out at 20.4 µM. Further, the logP in data set [7] is 3.26. The “Perme. (cell permeability)” value in data set [13] was 2.9e-06 cm/s.
As for `O=C(Nc1ccc([N+](=O)[O-])cc1Cl)c1cc(Cl)ccc1OC1CCNCC1` [HJC0125], the IC50 in data set [1] came out at 16.3 µM; in data set [2] (setting [14]), 44.5 µM. Also, the EC50 in data set [3] (setting [15]) amounted to 210 nM; in data set [4] (setting [18]), 150 nM. In addition, the CC50 in [5] (setting [19]) is 50.2 µM.
As to `Nc1ccc(NC(=O)c2cc(Cl)ccc2O)c(Cl)c1` [HJC0129], the IC50 in data set [1] is 9.6 µM; in data set [2] (setting [14]), 11.3 µM. The concentration for a half-maximal effect (EC50) in data set [3] (setting [15]), in [3] (setting [16]), in [4] (setting [17]) and in [4] (setting [18]) was > 30000 nM throughout. Moreover, in data set [5] (setting [19]), the CC50 turned out to be 176 µM. This compound displayed a logP in [7] of 2.76.
Regarding `O=C(Nc1ccc(C(F)(F)F)cc1Cl)c1cc(Cl)ccc1O` [JMX0308], the EC50 in data set [3] (setting [22]) turned out to be 90 nM; in [4] (setting [23]), 120 nM. In data set [7], this compound had a logP of 4.49. For the same compound, the “Perme. (cell permeability)” value in [13] came to 2.7e-07 cm/s.
On to `NCCCCOc1ccc(Cl)cc1C(=O)Nc1ccc([N+](=O)[O-])cc1Cl` [HJC0431], for which the values for the IC50 in data set [1] and in data set [2] (setting [14]) were 3.1 µM and 34 µM, respectively. Further, the EC50 in data set [3] (setting [15]) came out at 2200 nM; in [3] (setting [16]), 2200 nM; in data set [4] (setting [17]), 360 nM; in data set [4] (setting [18]) it was 360 nM. Further, the cytotoxic concentration (CC50) in data set [5] (setting [19]) was determined as 28.4 µM. Besides, the aqueous solubility entry in data set [6] is reported as “significantly improves the aqueous solubility”. In data set [7], this compound registered a logP of 3.9.
Consider `CC(=O)Oc1ccccc1C(=O)Nc1ncc([N+](=O)[O-])s1` [NTZ, nitazoxanide, reference compound], for which the EC50 in [3] (setting [16]) amounted to 300 nM; in data set [4] (Zika virus, Table 4, preliminary SAR, A549 cells, read-out: EC50-ZK), 1500 nM. This compound had a CC50 in data set [5] of 77 µM. Besides, the logP in [11] worked out at 2.14.
As for `O=C(NC(Cc1ccccc1)C(=O)Nc1ccc([N+](=O)[O-])cc1Cl)c1cc(Cl)ccc1O` (stereo not drawn) [JMX0285], the IC50 in data set [2] (setting [21]) was determined as 5.7 µM. Further, the EC50 in data set [3] (setting [22]) turned out to be 480 nM; in data set [4] (setting [23]), 300 nM. For the same compound, the CC50 in data set [8] was 16.5 µM. This compound returned a log partition coefficient (logP) in data set [7] of 3.84. For the same compound, in data set [13], the “Perme. (cell permeability)” value is 2.5e-07 cm/s.

The values are drawn from patent US11767303B2, “Compounds and methods for inhibiting viral replication and methods of treating and preventing flaviviral infections” (priority 2020, dated 2023).
